{"source": "patent US20150133434A1", "about": "“Compositions and Methods for Reactivating Latent Immunodeficiency Virus” (priority 2012, published 2015)", "key": {"[1]": {"test_system": "latent LTR-Tat-IRES-GFP construct in J-Lat A2 cells", "assay": "J-Lat A2 cells (LTR-Tat-IRES-GFP), flow cytometry of GFP", "type": "cell-based, HIV-1", "description": "(§1) HEK293T and Jurkat cells were obtained from the American Type Culture Collection. J-Lat (clones A2 and A72) cell lines were described. HEK293T cells were cultured in DMEM supplemented with 10% FBS, 1% L-glutamine and 1% penicillin-streptomycin (Life Technologies). Jurkat and J-Lat cells were cultured in RPMI supplemented with 10% FBS, 1% L-glutamine, and 1% penicillin-streptomycin. TNFα (Sigma-Aldrich) was used at concentrations of 0.25 or 1 ng/ml. Human αCD3 and αCD28 (BD Biosciences) were used at concentrations of 3 and 1 μg/ml, respectively. Prostratin (Sigma) was used at a suboptimal concentration of 0.5 μM, and SAHA (NCI Chemical Carcinogen Repository, Midwest Research Institute) was used at 2.5 μM.\n(§2) To determine if BET inhibition specifically activates Tat-dependent transcription, a J-Lat cell line was utilized that harbored a latent lentiviral construct expressing Tat with GFP from the HIV LTR (clone A2; LTR-Tat-IRES-GFP). […] Stimulation with JQ1 yielded up to ninefold more GFP-expressing cells than control-treated cells, and a 22-fold increase was observed when cells were co-treated with JQ1 and low doses of TNFα (FIG. 21A). […] Here, an up to 22-fold increase in GFP^+ cells resulted from JQ1 treatment alone and a 45-fold increase when TNFα was added with JQ1 (FIG. 21B). Both cell lines were also treated with prostratin and SAHA (FIG. 27).\n(§3) Two latent J-Lat cell lines A2 (containing a LTR-Tat-IRES-GFP construct) or A72 (containing a LTR-GFP construct) were treated with JQ1 or (R)-JQ1 in combination with TNFα or control at the indicated concentrations for 18 h, followed by flow cytometry analysis. […] Data represent average (±SD) of three independent experiments. All treatments in (A) and (B) on the X axis are in μM."}, "[2]": {"test_system": "latent LTR-GFP construct in J-Lat A72 cells", "assay": "J-Lat A72 cells (LTR-GFP lacking Tat), flow cytometry of GFP", "type": "cell-based, HIV-1", "description": "as §1, §2, §3"}, "[3]": {"test_system": "latent DHIV-GFP, X4 virus in nonpolarized T helper cells", "assay": "Primary T-cell model of latency, ex vivo differentiated nonpolarized CD4+ T cells", "type": "cell-based, HIV-1", "settings": "96 h after compound addition; minor effect only at highest doses"}, "[4]": {"test_system": "HIV LTR-GFP in J-Lat A72 cells", "assay": "JQ1 response in A72 cells after shRNA knockdown (cyclin T1, BRD2, BRD4), flow cytometry of GFP", "type": "cell-based", "description": "ShRNA-expressing lentiviral vectors were purchased from Open Biosystems. The plasmids TRCN0000006308 and TRCN0000006310 were used to deplete BRD2, plasmids TRCN0000021424 and TRCN0000021428 were used to deplete BRD4, and plasmids TRCN0000013673 and TRCN0000013675 were used to deplete cyclin T1. The pLKO.1 vector containing scramble shRNA was used as control. […]. J-Lat A72 cells (containing a LTR-GFP construct) were spininfected with virus (1 ng of p24 per 10^6 cells) containing shRNAs against BRD2, BRD4, cyclin T1 or nontargeting control shRNAs and were selected with puromycin (2 μg/ml; Sigma) (Naldini L, et al., Science 1996; 272:263-7). After 4 days of selection, cells were treated with the indicated concentration of drugs. The percentage of GFP^+ cells was determined after 18 h using a MACSQuant VYB FACS analyzer (Miltenyi Biotech GmbH). Cell viability was monitored by forward and side scatter analysis. Analysis was conducted on 3×10,000 live cells per condition, and all experiments were independently repeated at least three times. Data were analyzed using FlowJo 9.4 (Tree Star).\nAs transcription elongation at the HIV promoter uniquely depends on P-TEFb, whether the JQ1 effect in latent cells requires intact P-TEFb was determined. Short hairpin RNAs (shRNAs) directed against cyclin T1, an important component of P-TEFb, were introduced into A72 cells with lentiviral vectors. Knockdown of cyclin T1 yielded lower basal levels in GFP^+ cells than control cells expressing nontargeting shRNAs (FIG. 25A).\nTo test the functional relevance of BET proteins in HIV latency, lentiviral shRNA knockdown studies of endogenous BRD2 and BRD4 proteins were performed in A72 cells lacking Tat. BRD2 is a close relative of BRD4, but lacks a C-terminal PID domain. […] BRD2 binds JQ1 and other BET inhibitors, albeit with lower binding affinities than BRD4.\n(A) A72 cells were infected with virus containing shRNA constructs targeting cyclin T1 or a nontargeting control. Knockdown of cyclin T1 protein levels are shown by immunoblotting with cyclin T1 or the control α-tubulin antibody. At 4 days after infection, cells were treated with JQ1 or DMSO at the indicated concentrations for 18 h and analyzed by flow cytometry. […] Average (±SD) of three experiments is shown. (B) A72 cells were infected with virus containing shRNA constructs targeting BRD2, BRD4 or a nontargeting control. At 4 days after infection, cells were treated with JQ1 or DMSO at the indicated concentrations for 18 h and examined by flow cytometry. […] Results represent average (±SD) of three experiments. Knockdown of BRD2 and BRD4 protein levels were confirmed by immunoblotting with BRD2 and BRD4 antibodies or the control α-tubulin. All treatments in (A) and (B) on the X axis are in μM."}}, "note": "Entries after “also recorded” stand apart in the source; their conditions may differ."}
{"smiles": "Cc1sc2c(c1C)C(c1ccc(Cl)cc1)=N[C@@H](CC(=O)OC(C)(C)C)c1nnc(C)n1-2", "note": "[JQ1, tert-Butyl 2-((6S)-4-(4-chlorophenyl)-2,3,9-trimethyl-6H-thieno[3,2-f][1,2,4]triazolo[4,3-a][1,4]diazepin-6-yl)acetate]", "values": [{"measurement": "activation of HIV transcription (GFP)", "setting": "[1]; 18 h", "value": "activated HIV transcription in a dose-dependent manner; also recorded: reactivated HIV-1 in a dose-dependent manner; also recorded: increased GFP expression"}, {"measurement": "effect of adding SAHA to JQ1", "setting": "[1]; FIG. 27", "value": "only a very modest increase"}, {"measurement": "effect of adding prostratin to JQ1", "setting": "[1]; FIG. 27", "value": "enhanced the JQ1 effect"}, {"measurement": "GFP-expressing cells relative to control-treated cells", "setting": "[1]; JQ1 alone", "value": "up to ninefold"}, {"measurement": "increase in GFP-expressing cells", "setting": "[1]; JQ1 with low doses of TNFα", "value": 22, "unit": "fold"}, {"measurement": "activation of HIV transcription (GFP)", "setting": "[2]; 18 h", "value": "increased GFP expression; also recorded: reactivated HIV-1 in a dose-dependent manner"}, {"measurement": "effect of adding SAHA to JQ1", "setting": "[2]; FIG. 27", "value": "only a very modest increase"}, {"measurement": "effect of adding prostratin to JQ1", "setting": "[2]; FIG. 27", "value": "enhanced the JQ1 effect"}, {"measurement": "increase in GFP+ cells", "setting": "[2]; JQ1 alone", "value": "up to 22 fold"}, {"measurement": "increase in GFP+ cells", "setting": "[2]; TNFα added with JQ1", "value": 45, "unit": "fold"}, {"measurement": "reversal of latency (GFP)", "setting": "[3]", "value": "minor activatory effect"}, {"measurement": "activation of the HIV LTR in response to JQ1", "setting": "[4]; BRD2 knockdown cells", "value": "twofold"}, {"measurement": "response to JQ1", "setting": "[4]; BRD4 knockdown cells", "value": "not affected"}, {"measurement": "activation of the HIV LTR in response to JQ1", "setting": "[4]; control cells (nontargeting shRNA)", "value": 3.3, "unit": "fold"}, {"measurement": "cells responding with GFP expression to JQ1, relative to control cells", "setting": "[4]; cyclin T1 knockdown cells", "value": "half as many cells responded"}]}
